# Measurements published in patent US12624018B1, “Inhibitors of RIPK2 and medical uses thereof” (Odyssey Therapeutics, Inc., priority 2022, dated 2026).
# Biological target: T1, RIPK2 enzyme (Homo sapiens, UniProt O43353)
# T1 construct: purchased Carna 09-128
# Assay: RIPK2 inhibition (ADP-Glo Kinase Assay)
# Type: biochemical
# Details: RIPK2 5 nM, ATP 150 μM, MBP substrate, read-out: RIPK2 IC50
# Summary of the method: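 Swine MBP substrate; compound and 5 nM RIPK2 first mixed for 30 min at room temperature; buffer pH 7.5 HEPES 50 mM with 10 mM MgCl2, 2 mM DTT, 1 mM EGTA, Brij-35, BSA.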
# T1 sequence (O43353 1-299 limits assumed): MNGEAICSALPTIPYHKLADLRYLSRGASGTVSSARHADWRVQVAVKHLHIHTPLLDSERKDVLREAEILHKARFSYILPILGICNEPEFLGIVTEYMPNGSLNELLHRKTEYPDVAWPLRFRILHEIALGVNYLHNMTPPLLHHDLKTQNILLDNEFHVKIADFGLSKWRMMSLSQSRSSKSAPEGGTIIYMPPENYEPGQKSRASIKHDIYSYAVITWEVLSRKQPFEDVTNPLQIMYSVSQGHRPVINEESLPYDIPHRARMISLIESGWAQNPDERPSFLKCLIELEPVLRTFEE
row,SMILES,IC50 [nM]
1,"Cc1c(Oc2ccnc3ccc(S(=O)(=O)N4CCOCC4)cc23)ccc(CC(=O)Nc2cnn(C(C)(C)C)c2)c1F [Compound 274, N-(1-(tert-butyl)-1H-pyrazol-4-yl)-2-(2-fluoro-3-methyl-4-((6-(morpholinosulfonyl)quinolin-4-yl)oxy)phenyl)acetamide]",< 2.5
2,"Cc1c(Oc2ccnc3ccc(N4CCCS4(=O)=O)cc23)ccc(CC(=O)Nc2cnn(C(C)(C)C)c2)c1F [Compound 279, N-(1-(tert-butyl)-1H-pyrazol-4-yl)-2-(4-((6-(1,1-dioxidoisothiazolidin-2-yl)quinolin-4-yl)oxy)-2-fluoro-3-methylphenyl) acetamide]",< 2.5
3,"Cc1cc(CC(=O)Nc2cnn(C(C)(C)C)c2)ccc1Oc1ccnc2ccc(S(=O)(=O)C3CCC3)cc12 [Compound 280, N-(1-(tert-butyl)-1H-pyrazol-4-yl)-2-(4-((6-(cyclobutylsulfonyl)quinolin-4-yl)oxy)-3-methylphenyl)acetamide]",< 2.5
4,"Cc1cc(CC(=O)Nc2cnn(C(C)(C)C)c2)ccc1Oc1ccnc2ccc(S(=O)(=O)C3CC(O)C3)cc12 (stereo not drawn) [Compound 281, N-(1-(tert-butyl)-1H-pyrazol-4-yl)-2-(4-((6-((-3-hydroxycyclobutyl)sulfonyl)quinolin-4-yl)oxy)-3-methylphenyl)acetamide]",< 2.5
5,"CC(C)(C)n1cc(NC(=O)Cc2ncc(Oc3ncnc4ccc(O[C@H]5C[C@H]6CC[C@@H](C5)N6)cc34)cc2F)cn1 [Compound 289, 2-(5-((6-(((1R,3r,5S)-8-azabicyclo[3.2.1]octan-3-yl)oxy)quinazolin-4-yl)oxy)-3-fluoropyridin-2-yl)-N-(1-(tert-butyl)-1H-pyrazol-4-yl)acetamide]",4.3
6,"Cc1cc(CC(=O)Nc2cnn(C(C)(C)C)c2)ccc1Oc1ccnc2ccc(N3CCCC3=O)cc12 [Compound 290, N-(1-(tert-butyl)-1H-pyrazol-4-yl)-2-(3-methyl-4-((6-(2-oxopyrrolidin-1-yl)quinolin-4-yl)oxy)phenyl) acetamide]",< 2.5
7,"Cc1cc(CC(=O)Nc2cnn(C(C)(C)C)c2)ccc1Oc1ccnc2ccc(N3CCOC3=O)cc12 [Compound 293, N-(1-(tert-butyl)-1H-pyrazol-4-yl)-2-(3-methyl-4-((6-(2-oxooxazolidin-3-yl)quinolin-4-yl)oxy)phenyl) acetamide]",< 2.5
8,"Cc1cc(CC(=O)Nc2cnn(C(C)(C)C)c2)ccc1Oc1ccnc2ccc(N3CCOCC3=O)cc12 [Compound 294, N-(1-(tert-butyl)-1H-pyrazol-4-yl)-2-(3-methyl-4-((6-(3-oxomorpholino)quinolin-4-yl)oxy)phenyl) acetamide]",< 2.5
9,"Cc1c(Oc2ccnc3ccc(N4CCCC4=O)cc23)ccc(CC(=O)Nc2cnn(C(C)(C)C)c2)c1F [Compound 295, N-(1-(tert-butyl)-1H-pyrazol-4-yl)-2-(2-fluoro-3-methyl-4-((6-(2-oxopyrrolidin-1-yl)quinolin-4-yl)oxy)phenyl) acetamide]",< 2.5
10,"Cc1c(Oc2ccnc3ccc(N4CCOC4=O)cc23)ccc(CC(=O)Nc2cnn(C(C)(C)C)c2)c1F [Compound 298, N-(1-(tert-butyl)-1H-pyrazol-4-yl)-2-(2-fluoro-3-methyl-4-((6-(2-oxooxazolidin-3-yl)quinolin-4-yl)oxy)phenyl) acetamide]",< 2.5
11,"Cc1c(Oc2ccnc3ccc(P(C)(C)=O)cc23)ccc(CC(=O)Nc2cnn(C(C)(C)C)c2)c1F [Compound 300, N-(1-(tert-butyl)-1H-pyrazol-4-yl)-2-(4-((6-(dimethylphosphoryl)quinolin-4-yl)oxy)-2-fluoro-3-methylphenyl) acetamide]",< 2.5
12,"CCP(=O)(CC)c1ccc2nccc(Oc3ccc(CC(=O)Nc4cnn(C(C)(C)C)c4)c(F)c3C)c2c1 [Compound 301, N-(1-(tert-butyl)-1H-pyrazol-4-yl)-2-(4-((6-(diethylphosphoryl)quinolin-4-yl)oxy)-2-fluoro-3-methylphenyl) acetamide]",< 2.5
13,"Cc1c(Oc2ccnc3ccc(C(C)(C)O)cc23)ccc(CC(=O)Nc2cnn(C(C)(C)C)c2)c1F [Compound 302, N-(1-(tert-butyl)-1H-pyrazol-4-yl)-2-(2-fluoro-4-((6-(2-hydroxypropan-2-yl)quinolin-4-yl)oxy)-3-methylphenyl)acetamide]",< 2.5
14,"COC(C)(C)c1ccc2nccc(Oc3ccc(CC(=O)Nc4cnn(C(C)(C)C)c4)c(F)c3C)c2c1 [Compound 303, N-(1-(tert-butyl)-1H-pyrazol-4-yl)-2-(2-fluoro-4-((6-(2-methoxypropan-2-yl)quinolin-4-yl)oxy)-3-methylphenyl)acetamide]",< 2.5
15,"Cc1cc(CC(=O)Nc2cnn(C(C)(C)C)c2)ccc1Oc1ccnc2ccc(OC3CCC(=O)NC3)cc12 (stereo not drawn) [Compound 307, N-(1-(tert-butyl)-1H-pyrazol-4-yl)-2-(3-methyl-4-((6-((6-oxopiperidin-3-yl)oxy)quinolin-4-yl)oxy)phenyl) acetamide]",< 2.5
16,"Cc1cc(CC(=O)Nc2cnn(C(C)(C)C)c2)ccc1Oc1ccnc2ccc(OC3CCCNC3=O)cc12 (stereo not drawn) [Compound 308, N-(1-(tert-butyl)-1H-pyrazol-4-yl)-2-(3-methyl-4-((6-((2-oxopiperidin-3-yl)oxy)quinolin-4-yl)oxy)phenyl) acetamide]",< 2.5
17,"Cc1cc(CC(=O)Nc2cnn(C(C)(C)C)c2)ccc1Oc1ccnc2ccc(S(=O)(=O)CC(C)(C)O)cc12 [Compound 309, N-(1-(tert-butyl)-1H-pyrazol-4-yl)-2-(4-((6-((2-hydroxy-2-methylpropyl)sulfonyl)quinolin-4-yl)oxy)-3-methylphenyl)acetamide]",< 2.5
18,"Cc1cc(CC(=O)Nc2cnn(C(C)(C)C)c2)ccc1Oc1ccnc2ccc(S(=O)(=O)C(C)(C)CO)cc12 [Compound 310, N-(1-(tert-butyl)-1H-pyrazol-4-yl)-2-(4-((6-((1-hydroxy-2-methylpropan-2-yl)sulfonyl)quinolin-4-yl)oxy)-3-methylphenyl)acetamide]",< 2.5

# Continued, values first:
row,IC50 [nM],SMILES
1,< 2.5,"Cc1c(Oc2ccnc3ccc(S(N)(=O)=O)cc23)ccc(CC(=O)Nc2cnn(C(C)(C)C)c2)c1F [Compound 267, N-(1-(tert-butyl)-1H-pyrazol-4-yl)-2-(2-fluoro-3-methyl-4-((6-sulfamoylquinolin-4-yl)oxy)phenyl)acetamide]"
2,< 2.5,"CNS(=O)(=O)c1ccc2nccc(Oc3ccc(CC(=O)Nc4cnn(C(C)(C)C)c4)c(F)c3C)c2c1 [Compound 268, N-(1-(tert-butyl)-1H-pyrazol-4-yl)-2-(2-fluoro-3-methyl-4-((6-(N-methylsulfamoyl)quinolin-4-yl)oxy)phenyl)acetamide]"
3,< 2.5,"Cc1c(Oc2ccnc3ccc(S(=O)(=O)N(C)C)cc23)ccc(CC(=O)Nc2cnn(C(C)(C)C)c2)c1F [Compound 269, N-(1-(tert-butyl)-1H-pyrazol-4-yl)-2-(4-((6-(N,N-dimethylsulfamoyl)quinolin-4-yl)oxy)-2-fluoro-3-methylphenyl)acetamide]"
4,< 2.5,"Cc1c(Oc2ccnc3ccc(S(=O)(=O)N4CCCC4)cc23)ccc(CC(=O)Nc2cnn(C(C)(C)C)c2)c1F [Compound 270, N-(1-(tert-butyl)-1H-pyrazol-4-yl)-2-(2-fluoro-3-methyl-4-((6-(pyrrolidin-1-ylsulfonyl)quinolin-4-yl)oxy)phenyl)acetamide]"
5,< 2.5,"Cc1c(Oc2ccnc3ccc(S(=O)(=O)N4CCC4)cc23)ccc(CC(=O)Nc2cnn(C(C)(C)C)c2)c1F [Compound 271, 2-(4-((6-(azetidin-1-ylsulfonyl)quinolin-4-yl)oxy)-2-fluoro-3-methylphenyl)-N-(1-(tert-butyl)-1H-pyrazol-4-yl)acetamide]"
6,< 2.5,"Cc1c(Oc2ccnc3ccc(S(=O)(=O)N4CC(F)C4)cc23)ccc(CC(=O)Nc2cnn(C(C)(C)C)c2)c1F [Compound 272, N-(1-(tert-butyl)-1H-pyrazol-4-yl)-2-(2-fluoro-4-((6-((3-fluoroazetidin-1-yl)sulfonyl)quinolin-4-yl)oxy)-3-methylphenyl)acetamide]"
7,< 2.5,"Cc1c(Oc2ccnc3ccc(S(=O)(=O)N4CC(C#N)C4)cc23)ccc(CC(=O)Nc2cnn(C(C)(C)C)c2)c1F [Compound 273, N-(1-(tert-butyl)-1H-pyrazol-4-yl)-2-(4-((6-((3-cyanoazetidin-1-yl)sulfonyl)quinolin-4-yl)oxy)-2-fluoro-3-methylphenyl)acetamide]"
8,< 2.5,"Cc1c(Oc2ccnc3ccc(S(=O)(=O)N(C)CCO)cc23)ccc(CC(=O)Nc2cnn(C(C)(C)C)c2)c1F [Compound 275, N-(1-(tert-butyl)-1H-pyrazol-4-yl)-2-(2-fluoro-4-((6-(N-(2-hydroxyethyl)-N-methylsulfamoyl)quinolin-4-yl)oxy)-3-methylphenyl)acetamide]"
9,< 2.5,"COCCN(C)S(=O)(=O)c1ccc2nccc(Oc3ccc(CC(=O)Nc4cnn(C(C)(C)C)c4)c(F)c3C)c2c1 [Compound 276, N-(1-(tert-butyl)-1H-pyrazol-4-yl)-2-(2-fluoro-4-((6-(N-(2-methoxyethyl)-N-methylsulfamoyl)quinolin-4-yl)oxy)-3-methylphenyl)acetamide]"
10,< 2.5,"Cc1c(Oc2ccnc3ccc(NS(C)(=O)=O)cc23)ccc(CC(=O)Nc2cnn(C(C)(C)C)c2)c1F [Compound 277, N-(1-(tert-butyl)-1H-pyrazol-4-yl)-2-(2-fluoro-3-methyl-4-((6-(methylsulfonamido)quinolin-4-yl)oxy)phenyl) acetamide]"
11,< 2.5,"Cc1c(Oc2ccnc3ccc(N(C)S(C)(=O)=O)cc23)ccc(CC(=O)Nc2cnn(C(C)(C)C)c2)c1F [Compound 278, N-(1-(tert-butyl)-1H-pyrazol-4-yl)-2-(2-fluoro-3-methyl-4-((6-(N-methylmethyl-sulfonamido)quinolin-4-yl)oxy)phenyl) acetamide]"
12,< 2.5,"Cc1c(Oc2ccnc3ccc(S(=O)(=O)C4CCC4)cc23)ccc(CC(=O)Nc2cnn(C(C)(C)C)c2)c1F [Compound 284, N-(1-(tert-butyl)-1H-pyrazol-4-yl)-2-(4-((6-(cyclobutylsulfonyl)quinolin-4-yl)oxy)-2-fluoro-3-methylphenyl)acetamide]"
